Experimental data: paper PMC8878748, “Broad-Spectrum Antiviral Activity of the Amphibian Antimicrobial Peptide Temporin L and Its Analogs” (International Journal of Molecular Sciences, 2022)
Where two headings read alike, the source gives them in different places. Where a SMILES comes first, the peptide text is derived from it. [ ]: non-standard residue; d: D form. The star is where a group is joined. X1 = CC(C)CCC[C@@H](C)[C@H]1CC[C@H]2[C@@H]3CC=C4C[C@@H](OC(=O)CCOCCOCCOCCOCCNC(=O)C*)CC[C@]4(C)[C@H]3CC[C@]12C; Nle = CCCC[C@H](N)C(=O)O

Columns and labels:
[1] = MTT cytotoxicity assay on Vero cells; type: cell-based; details: MTT, calculated after 2 h of peptide treatment
[2] = tested on: poliovirus Sb-1; type: cell-based
[3] = tested on: CV-B3; test: Plaque reduction assay, CV-B3; type: cell-based, Enterovirus B (coxsackievirus B3, ATCC VR-688); details: four experimental settings
[4] = tested on: human erythrocytes; details: at their antiviral concentrations
Protocol: The hemolytic activity of the peptides was determined using fresh human erythrocytes from healthy donors as reported previously. Briefly, the blood was centrifuged, and the erythrocytes were washed three times with 0.9% NaCl. Peptides were added to the erythrocyte suspension (5% v/v), at a final concentration ranging from 0.1 to 100 μM in a final volume of 100 μL. The samples were incubated with agitation at 37 °C for 60 min. The release of hemoglobin was monitored by measuring the absorbance (Abs) of the supernatant at 540 nm. The control for zero hemolysis (blank) consisted of erythrocytes suspended in the presence of peptide solvent. Hypotonically lysed erythrocytes were used as a standard for 100% hemolysis. The percentage of hemolysis was calculated using the equation: % hemolysis = [(Abssample − Absblank)/(Abstotal lysis − Absblank)] × 100

[5] = tested on: peripheral blood mononuclear cells (PBMCs); test: MTT cytotoxicity assay on PBMCs; type: cell-based, human; details: 2 h and 24 h
Protocol: Vero cells (ATCC CCL-81, Manassas, VA, USA) and Vero/hSLAM cells (ECACC 04091501, Porton Down, UK) and Madin Darby canine kidney (MDCK, CCL-34) were grown in Dulbecco’s Modified Eagle Medium (DMEM) with 4.5 g/L glucose (Microtech, Naples, Italy) supplemented with 100 IU/mL penicillin and 100 μg/mL streptomycin (Himedia, Naples, Italy) and 10% Fetal Bovine Serum (Microtech). PBMCs were isolated as follow. Buffy coats acquired from a healthy anonymous donor were used to isolate PBMCs on a Ficoll-Hypaque density gradient (Sigma-Aldrich) according to standard procedures. Then, PBMCs were grown (5 × 10^6/mL) in RPMI 1640 (Microtech) supplemented with 10% FBS, 60 IU/mL of interleukin-2 (IL-2, Sigma-Aldrich) and 2 µg/mL of phytohemagglutinin (PHA) (Sigma-Aldrich).
Vero cells were seeded in 96-well microtiter tissue culture plates (5 × 10^3 cells /well) and incubated for 24 h at 37 °C in 5% CO2. PBMCs were isolated and then cultured at a concentration of 1 × 10^5 cells/well.
The cytotoxicity for both cell types was evaluated by the MTT (Sigma-Aldrich) assay based on the reduction of the yellowish MTT to the insoluble and dark blue formazan by viable and metabolically active cells. Temporin-based peptides were tested at […] concentrations (0.1, 1, 6.25, 12.5, 25, 50 and 100 µM) after 2 and 24 h. At the end of incubation, 100 μL of an MTT solution (5 mg/mL) was added in each well and incubated for 3 h at 37 °C. The supernatant was discarded and 100 μL of DMSO 100% (Sigma Aldrich) was added (to dissolve the formazan salts) for 10 min with vigorous agitation at room temperature. Cytotoxicity was evaluated by spectrophotometric reading at 540 nm. The viability of Vero cells in each well was presented as a percentage of control cells. All experiments were performed in triplicate, and the means standard deviations are reported. Nonlinear regression analysis was performed using GraphPad Prism software (GraphPad Software, San Diego, CA, USA) to determine the CC50.

[6] = tested on: MeV; details: for IC50 / IC90: 2 h
[7] = tested on: influenza virus (subtype H1N1); details: influenza virus (subtype, 2 h)
[8] = tested on: HCoV-229E; details: 2 h
[9] = cited from earlier work
[10] = tested on: Vero cells; test: MTT cytotoxicity assay on Vero cells; type: cell-based; details: 2 h of treatment, concentration above 50 μM
[11] = tested on: HSV-1; design: method as in PMID 29483113; details: preincubation of HSV-1 purified virions with 20 µg/mL; cited from earlier work

| Compound | CC50 [1] [µM] | infectivity of poliovirus Sb-1 in the presence of peptide [2] | infectivity of CV-B3 in the presence of peptide [3] | hemolytic activity [4] | cytotoxicity on PBMCs [5] | IC50 [6] [µM] | IC90 [6] [µM] | reduction of infectivity, MeV ([6]; cell pretreatment assay, peptide 25 μM) | effect on MeV in the virus pretreatment assay ([6]; virus pretreatment assay) | IC50 [7] [µM] | IC90 [7] [µM] | IC50 [8] [µM] | IC90 [8] [µM] | %Helix in DPC ([9]; Table 1) [%] | %Helix in DPC ([9]; Table 2) [%] | toxicity [10] | reduction of virus titers [11] [log] |
| --- | --- | --- | --- | --- | --- | --- | --- | --- | --- | --- | --- | --- | --- | --- | --- | --- | --- |
| CC[C@H](C)[C@H](NC(=O)[C@H](CCCNC(=N)N)NC(=O)CNC(=O)[C@@H](CC(C)C)NC(=O)[C@H](Cc1ccccc1)NC(=O)[C@H](CCCCN)NC(=O)[C@H](CO)NC(=O)[C@H](Cc1ccccc1)NC(=O)[C@H](Cc1c[nH]c2ccccc12)NC(=O)[C@@H]1CCCN1C(=O)[C@@H](NC(=O)[C@@H](N)Cc1ccccc1)C(C)C)C(=O)N[C@@H](CC(C)C)C(N)=O [TL1, H-Phe-Val-Pro-Trp-Phe-Ser-Lys-Phe-DLeu-Gly-Arg-Ile-Leu-NH2] (H-FVPWFSKF[dL]GRIL-NH2) | 42.2 | not altered | not altered | practically devoid of hemolytic activity | minor damage | > 50 | > 50 | over 40% | not affected | 6.74 | 12.5 | 7.66 | 30.1 | 42 | 42 |  |  |
| CCCC[C@H](NC(=O)[C@@H](CC(C)C)NC(=O)[C@H](Cc1ccccc1)NC(=O)[C@H](CCCCN)NC(=O)[C@H](CO)NC(=O)[C@H](Cc1ccccc1)NC(=O)[C@H](Cc1c[nH]c2ccccc12)NC(=O)[C@@H]1CCCN1C(=O)[C@@H](NC(=O)[C@@H](N)Cc1ccccc1)C(C)C)C(=O)N[C@@H](CCCNC(=N)N)C(=O)N[C@H](C(=O)N[C@@H](CC(C)C)C(=O)NCC(=O)NCC(=O)N[C@@H](CSCC(=O)NCCOCCOCCOCCOCCC(=O)O[C@H]1CC[C@@]2(C)C(=CC[C@H]3[C@@H]4CC[C@H]([C@H](C)CCCC(C)C)[C@@]4(C)CC[C@@H]32)C1)C(N)=O)[C@@H](C)CC [TL6.2, H-Phe-Val-Pro-Trp-Phe-Ser-Lys-Phe-DLeu-Nle-Arg-Ile-Leu-Gly-Gly-Cys-[PEG4-Cholesterol]-NH2] (H-FVPWFSKF[dL][Nle]RILGGC(X1)-NH2) | > 100 |  |  |  |  | 40.9 | > 50 |  |  | 21.1 | 49.9 |  |  |  |  | about 40% |  |
| temporin B [TB] |  |  |  |  |  |  |  |  |  |  |  |  |  |  |  |  | 5 |
